According to US20070055448A1, “Primary rat hepatocyte toxicity modeling” (Gene Logic Inc., priority 2003, published 2007):
Each block holds one molecule with its values, some of them ahead of it.

Key:
[1] = oral doses; cited from earlier work
[2] = Lovastatin rat dosing study: liver tissue examination; format: in vivo, rats
[3] = 0.1, 1, 2, 3, 4 mL/kg ip; 2.5 mL/kg po; peak within 48 hours post dose; cited from earlier work
[4] = human, in vivo; cited from earlier work
[5] = 180 reported cases; cited from earlier work
[6] = dogs, after treatment; cited from earlier work
[7] = AY-25329 repeated-dose rat study: serum chemistry and light microscopy; format: in vivo, rats
Source text: The present inventors have noted indications of liver and renal effects of AY-25329 by changes in serum chemistry. […] Most of these markers of renal and liver dysfunction remained altered throughout the 14 day study period.

- effects in liver tissue ([2]; 9 or 90 mg/kg twice a day, after 6 or after 24 hours): no effects were noted
- liver cell changes ([2]; after 14 days of treatment at the higher dosage (90 mg/kg twice a day)): abnormal vacuolization of the cytoplasm
Structure (SMILES): CC[C@H](C)C(=O)O[C@H]1C[C@@H](C)C=C2C=C[C@H](C)[C@H](CC[C@@H]3C[C@@H](O)CC(=O)O3)[C@H]21 [lovastatin]
- metabolites excreted in the urine [1]: less than 13%

Structure (SMILES): ClC(Cl)(Cl)Cl [CCl4, carbon tetrachloride]
- peak increase of ALT and AST levels [3]: 5-10 fold

Structure (SMILES): CCCC(CCC)C(=O)O [valproate, n-dipropylacetic acid]
- patients with elevated levels of hepatic enzymes [4]: about 40 % of patients

Structure (SMILES): O=C(O)Cc1ccccc1Nc1c(Cl)cccc1Cl [diclofenac]
- jaundice among symptomatic patients [5]: 75 % of the symptomatic patients

Structure (SMILES): Cl.Nc1nc2c(Cc3ccsc3)c[nH]c2c(=O)[nH]1.O [CI-1000, 4H-pyrrolo:3,2-d:pyrimidin-4-one, 2-amino-3,5-dihydro-7-(3-thienylmethyl)-monohydrochloride monohydrate]
- serum ALT levels [6]: increased serum ALT levels

Structure (SMILES): O=C(CCN1CCN2CCCC2C1)N1c2ccccc2Sc2ccc(Cl)cc21 (stereo not shown) [AY-25329]
- histopathology of kidney and liver ([7]; 14 days of repeated dosing, 250 mg/kg/day): nephrosis and alterations in the peripheral lobes of the liver and in the cytoplasm of hepatocytes were evident
- light microscopic analysis of the liver ([7]; as early as 6 and 24 hours): increased number of hepatocytic mitotic figures and decreased glycogen content
- serum levels of creatinine, BUN, ALT, triglycerides and cholesterol ([7]; as early as 6 hours after the first dose, most markers remained altered throughout the 14 day study period): statistically significant increases
